Reference: patent US12702654B2, “Compositions and methods for treating homocystinuria and other conditions using polyamines” (THE REGENTS OF THE UNIVERSITY OF COLORADO, priority 2020, dated 2026)

What was measured:
HO HCU mice [1] = experiment: Plasma metabolite levels (tHcy, methionine cycle amino acids, SAM, SAH) in HO HCU mice; assay type: in vivo, mouse; settings: for plasma Hcy / plasma cysteine levels: HO mice, about 3.0% (w/v) in drinking water ad libitum, normal methionine diet
Procedure: It is noted that WT mice (n=6) include untreated controls. HO HCU mice (N=8, 4 of each sex in each group) were either untreated or treated with about 3.0% (w/v) glycine w/v or about 3.0% (w/v) serine given in drinking water supplied ad libitum for one week. Plasma samples were taken and Hcy and cysteine levels were determined. *** denotes a P value <0.0001.
In accordance with these methods, HO HCU mice (N=8, 4 of each sex in each group) were treated with either about 3.0% glycine w/v or about 3.0% w/v serine given in drinking water supplied ad libitum for one week in the presence and absence of about 3.0% w/v betaine. Plasma samples were taken from the mice at various times and Hcy levels were determined.
Plasma Hcy levels were determined from HO HCU mice (n=8 per group) in the presence and absence of either about 5.0% w/v sodium formate alone or in combination with about 3.0% betaine given in drinking water given ad libitum.
In one exemplary method, mice were given zinc in drinking water. For this example, 8 HO HCU mice were provided drinking water supplemented with zinc (e.g. 0.05% w/v Zinc sulfate) given ad libitum for one week.
(§1) In another exemplary method, the transsulfuration pathway and methionine-folate cycle pathways, as show in the sematic illustrated in FIG. 18A, were assessed. In brief, three experimental groups (n=8 for each group) of male mice consisting of either untreated WT controls or HO HCU mice in the presence or absence of betaine treatment. Betaine was administered by dissolving the compound in drinking water at 30 g/l and was supplied ad libitum to the mice for one week. Treatment water was replenished twice per week.
A comparative reference data set was generated for these mice by examining plasma levels of tHcy, methionine, cysteine, serine, glycine, dimethylglycine, methylglycine (MG, SAM and SAH). In brief, determination of plasma levels of amino acids relevant to the methionine cycle were determined using methods similar to those described in Stabler et al., Blood. 81 (1993) 3404-3413, incorporated in its entirety herein. Determination of hepatic 5-methylTHF was performed by liquid chromatography-tandem mass spectrometry using methods similar to those described in Witham et al., PLoS One. 8 (2013) e77923, incorporated in its entirety herein. The global metabolomic analysis of methionine and folate cycle related metabolites was carried out by Metabolon, Inc. Briefly, sample preparation was performed utilizing the automated MicroLab STAR® system. Sample preparation was performed using a proprietary series of organic and aqueous extractions to remove the protein fraction while allowing maximum recovery of small molecules. The resulting extract was divided into two fractions: one for analysis by liquid chromatography and one for analysis by gas chromatography. Each sample was then frozen and dried under vacuum. The LC/mass spectrometer portion of the platform was based on a Waters ACQUITY UPLC and a Thermo-Finnigan LTQ mass spectrometer, which consisted of an electrospray ionization source and linear ion-trap mass analyzer. Samples were analyzed on a Thermo-Finnigan Trace DSQ fast-scanning single-quadrupole mass spectrometer using electron impact ionization. Identification of known chemical entities was based on comparison to library entries of authenticated standards. Tissue polyamines putrescine, spermidine and spermine and 5-methylthioadenosine (MTA) were determined by liquid chromatography-tandem mass spectrometry using methods similar to those described in Stevens et al., J Chromatogr A 1217 (2010) 3282-3288, incorporated in its entirety herein.

Cbs null mouse = Cbs null mouse model (Hcy, survival, liver injury); assay type: in vivo; settings: severe liver damage abolished BHMT-mediated betaine response
Excerpt: In another exemplary method, an acceptable mouse mode of HCU was used to study various effects of exemplary compositions disclosed herein on aberrant Hcy levels. To date, the majority of research on HCU had been performed using a CBS knockout mouse model. These Cbs (−/−) animals experienced pronounced liver injury and typically die within 2-3 weeks of birth.
In another exemplary method, agents were used to verify involvement of BHMT in the homocystinuria treatment process. In these exemplary methods, a Cbs null mouse was used where severe liver damage to the mouse model interferes with standard HCU treatments to reduce Hcy.

DMGDH = experiment: Western blotting of hepatic DMGDH protein levels; assay type: in vivo, mouse; settings: HO HCU mice, about 5.0% sodium formate alone or with about 3.0% betaine in drinking water, about one week
Excerpt: As shown in FIGS. 12A-12B, a Western blot comparing the level of DMGDH and GAPDH (control) for untreated (HO), treated (e.g. formate agent) and treated with standard treatment combinations (e.g. formate and trimethylglycine (e.g. betaine)) using the HCU mouse model (FIG. 12A); and further illustrating in a histogram plot (FIG. 12B), level of intensity of DMDGH for untreated (HO), treated (e.g. formate agent) and treated with standard treatment combinations (e.g. formate and trimethylglycine (e.g. betaine)) using the HCU mouse model in certain embodiments disclosed herein. Western blotting analysis of hepatic DMGDH protein levels in HO HCU mice in the presence and absence of either about 5.0% sodium formate alone or in combination with about 3.0% betaine given ad libitum in drinking water for about one week. N=9 per group. This figure is representative of three independent experiments.

HO HCU mice [2] = experiment: Tail bleeding time / hypercoagulative phenotype in HO HCU mice; assay type: in vivo, mouse; settings: 4 mM solution in drinking water ad libitum, one week
Procedure: In another exemplary method, effect of polyamines (e.g. spermidine and spermine) on the hypercoagulative phenotype induced by HCU was assessed which is a measure of treatment for genetic HCU where rapid coagulation is a side effect of these conditions. In brief, mice containing both the human CBS transgene and no functional copy of the mouse equivalent gene were identified by PCR from the litters of progeny of 11181×MKO^+/− F1 mice backcrossed to MKO^+/− mice. These mice were designated as “human only” (HO) mice and used as a human model of HCU. […] In order to further investigate the possible therapeutic potential of polyamine (e.g. spermidine and spermine) therapy in HCU, WT and HO HCU mice were given either: […]; […] in drinking water given ad libitum; or drinking water (untreated, control). After one week, tail bleeding times were determined for untreated wild type (WT) control B6 mice and HO HCU mice from all treatment groups.

SAHH = experiment: Western blotting of hepatic SAHH expression; assay type: in vivo, mouse; settings: HO mice, 30 g/l in drinking water ad libitum, one week
Procedure: (§2) To investigate the effects of these treatments upon the hepatic regulatory changes in enzyme expression induced by HCU, the human transgenic HO mouse model of HCU was used. In brief, experimental groups consisting of 8 HO mice on a C57BL/6J background and 8 C57BL/6J WT littermate control mice bred in house were used. Mice in both groups were male and aged between 3 and 4 months. Except where otherwise stated, all mice were maintained on standard chow. All diets were administered using a paired-feeding design to ensure isocaloric intake between all experimental groups and body weights were measured once per week. There was no significant difference in body weight between mice in any of the experimental groups. Betaine and taurine were in this example, both administered by dissolving these compounds in drinking water at 30 g/l (2% or 3% w/v) and were supplied ad libitum for one week. Treatment water was replenished twice per week.
(§3) Western blotting analysis of SAHH, MTHFR and SHMT2 expression was performed in liver samples from HO mice in the presence and absence of betaine or taurine treatment.

MTHFR = experiment: Western blotting of hepatic MTHFR expression; assay type: in vivo, mouse; settings: HO mice, 30 g/l in drinking water ad libitum, one week
Procedure: as §2, §3

SHMT2 = experiment: Western blotting of hepatic SHMT2 expression; assay type: in vivo, mouse; settings: HO mice, 30 g/l in drinking water ad libitum, one week
Procedure: as §2, §3

SHMT1 = experiment: Western blotting of hepatic SHMT1 expression; assay type: in vivo, mouse; settings: HO mice, 30 g/l in drinking water ad libitum, one week
Procedure: as §2
(§4) These observations are the first to report betaine and taurine acting to regulate expression of these processes. Therefore, this observation supports that taurine alone or in combination with betaine and other treatments for genetic homocystinuria are viable options for avoiding dietary restraints and treating these conditions.

MAT1A = experiment: Western blotting of hepatic MAT1A expression; assay type: in vivo, mouse; settings: HO HCU mice, 30 g/l in drinking water ad libitum, one week
Procedure: as §2, §4

GNMT = experiment: Western blotting of hepatic GNMT expression; assay type: in vivo, mouse; settings: HO HCU mice, 30 g/l in drinking water ad libitum, one week
Procedure: as §2, §4

[3] = mouse, in vivo
Procedure: as §1
as §2, with “Betaine and taurine were in this example, both administered by dissolving these compounds in drinking water at 30 g/l (2% or 3% w/v) and were supplied ad libitum for one week. Treatment water was replenished twice per week.” left out

[4] = system: cysteine oxidation pathways; experiment: Cysteine oxidation pathways in HCU (HO model); assay type: in vivo, mouse; settings: 30 g/l in drinking water, one week
Procedure: as §2

HO HCU mice [5] = settings: taurine supplementation; cited from earlier work
HO HCU mice [6] = experiment: Plasma metabolite levels (tHcy, methionine cycle amino acids, SAM, SAH) in HO HCU mice; assay type: in vivo, mouse; settings: taurine treatment
glutathione = settings: taurine supplementation; cited from earlier work
human HCU patients = settings: taurine supplementation; cited from earlier work

O=S(=O)([O-])[O-].[Zn+2] [Zinc sulfate]
decrease in plasma homocysteine (HO HCU mice [1]; 8 HO HCU mice, 0.05% w/v Zinc sulfate in drinking water ad libitum, one week, p<0.001): 25%

NCC(=O)O [glycine]
plasma Hcy (HO HCU mice [1]; one week): significantly lowered
plasma cysteine levels (HO HCU mice [1]; one week): increased
Hcy in Cbs null mouse model (Cbs null mouse): unable to lower Hcy

N[C@@H](CO)C(=O)O [serine]
plasma Hcy (HO HCU mice [1]; one week): significantly lowered
plasma cysteine levels (HO HCU mice [1]; one week): increased
Hcy in Cbs null mouse model (Cbs null mouse): unable to lower Hcy

O=C[O-].[Na+] [sodium formate]
plasma Hcy levels (HO HCU mice [1]; HO HCU mice, about 5.0% w/v sodium formate alone or with about 3.0% betaine in drinking water ad libitum, normal methionine/protein diet): significantly lowered
hepatic DMGDH expression levels (DMGDH): restore normal expression levels
Hcy in Cbs null mouse model (Cbs null mouse): unable to lower Hcy

NCCCCNCCCN [spermidine]
clotting time (tail bleeding time) compared to untreated HO mice (HO HCU mice [2]): highly significant increase in clotting time

NCCCNCCCCNCCCN [spermine]
clotting time (tail bleeding time) compared to untreated HO mice (HO HCU mice [2]): significantly ameliorated

NCCS(=O)(=O)O [taurine]
HCU-mediated induction of hepatic SAHH expression (SAHH): essentially identical reversal
HCU-mediated induction of hepatic MTHFR expression (MTHFR): essentially identical reversal
HCU-induced repression of hepatic SHMT2 (SHMT2): essentially identical reversal
increase in hepatic SHMT1 expression (SHMT1): 35%
hepatic MAT1a expression (MAT1A): induced expression
hepatic GNMT expression (GNMT): induced expression
tolerability of doses [3]: well tolerated
dysregulation of cysteine oxidation pathways in HCU [4]: ameliorate the dysregulation of cysteine oxidation pathways
efficacy of betaine treatment in mice (HO HCU mice [5]): enhances the efficacy of betaine treatment
effect upon lowering plasma tHcy levels (HO HCU mice [6]): only a mild effect
HCU-induced disturbances in glutathione metabolism and the gamma-glutamyl cycle (glutathione): effectively normalized
endothelial dysfunction in human HCU patients (human HCU patients): completely ablate endothelial dysfunction
